Like-named read-outs stand apart in the source and are kept apart here.
System: tomato late blight
Type: in vivo, Phytophthora infestans

Work on `CC1COC(Cn2cncn2)(c2ccc(Oc3ccc(Cl)cc3)cc2Cl)O1` (stereo not drawn) [Difenoconazole, difenoconazole] yielded a Control value (difenoconazole 12.5 ppm alone (valifenalate 0 ppm)) of 13, a Control value (difenoconazole 25 ppm alone (valifenalate 0 ppm)) of 13 and a Control value (difenoconazole 50 ppm alone (valifenalate 0 ppm)) of 21. It also gave a Control value (difenoconazole 100 ppm alone (valifenalate 0 ppm)) of 25.

With `Cc1cc(OC(C)C)ccc1C(=O)C(C)(C)NC(=O)c1sccc1C` [Isofetamid, isofetamid] the Control value (isofetamid 18.8 ppm alone (valifenalate 0 ppm)) was 0, the Control value (isofetamid 37.5 ppm alone (valifenalate 0 ppm)) was 0 and the Control value (isofetamid 75 ppm alone (valifenalate 0 ppm)) was 0. It also gave a Control value (isofetamid 150 ppm alone (valifenalate 0 ppm)) of 4 and a Control value (isofetamid 300 ppm alone (valifenalate 0 ppm)) of 8.

`COc1cc(C)c(C(=O)c2c(OC)ncc(Cl)c2C)c(OC)c1OC` [Pyriofenone, pyriofenone] showed a Control value (pyriofenone 12.5 ppm alone (valifenalate 0 ppm)) of 0, a Control value (pyriofenone 25 ppm alone (valifenalate 0 ppm)) of 0 and a Control value (pyriofenone 50 ppm alone (valifenalate 0 ppm)) of 0. It also gave a Control value (pyriofenone 100 ppm alone (valifenalate 0 ppm)) of 0.

Molecule `CC(C)(C)C(O)(CCc1ccc(Cl)cc1)Cn1cncn1` (stereo not drawn) [Tebuconazole, tebuconazole] has a Control value (tebuconazole 12.5 ppm alone (valifenalate 0 ppm)) of 4, a Control value (tebuconazole 25 ppm alone (valifenalate 0 ppm)) of 4 and a Control value (tebuconazole 50 ppm alone (valifenalate 0 ppm)) of 4. The Control value (tebuconazole 100 ppm alone (valifenalate 0 ppm)) was 8.

In the case of `COC(=O)CC(NC(=O)[C@@H](NC(=O)OC(C)C)C(C)C)c1ccc(Cl)cc1` (stereo partly drawn) [Valifenalate, valifenalate], the Control value (valifenalate 1.2 ppm alone (difenoconazole 0 ppm), Table 4) is reported as 46, the Control value (valifenalate 1.2 ppm alone (isofetamid 0 ppm), Table 1) is reported as 29 and the Control value (valifenalate 1.2 ppm alone (pyriofenone 0 ppm), Table 2) is reported as 13. For the same molecule, the Control value (valifenalate 2.3 ppm alone (difenoconazole 0 ppm), Table 4) was 54, the Control value (valifenalate 2.3 ppm alone (isofetamid 0 ppm), Table 1) was 42 and the Control value (valifenalate 2.3 ppm alone (pyriofenone 0 ppm), Table 2) was 25. The Control value (valifenalate 2.3 ppm alone (tebuconazole 0 ppm), Table 3) was 33, the Control value (valifenalate 4.7 ppm alone (difenoconazole 0 ppm), Table 4) was 58 and the Control value (valifenalate 4.7 ppm alone (isofetamid 0 ppm), Table 1) was 54. For the same molecule, the Control value (valifenalate 4.7 ppm alone (pyriofenone 0 ppm), Table 2) was 50, the Control value (valifenalate 4.7 ppm alone (tebuconazole 0 ppm), Table 3) was 46 and the Control value (valifenalate 9.4 ppm alone (difenoconazole 0 ppm), Table 4) was 75. For the same molecule, the Control value (valifenalate 9.4 ppm alone (isofetamid 0 ppm), Table 1) was 71, the Control value (valifenalate 9.4 ppm alone (pyriofenone 0 ppm), Table 2) was 63 and the Control value (valifenalate 9.4 ppm alone (tebuconazole 0 ppm), Table 3) was 63. It also gave a Control value (valifenalate 18.8 ppm alone (isofetamid 0 ppm), Table 1) of 75, a Control value (valifenalate 18.8 ppm alone (pyriofenone 0 ppm), Table 2) of 79 and a Control value (valifenalate 18.8 ppm alone (tebuconazole 0 ppm), Table 3) of 67. It also gave a Control value (valifenalate 37.5 ppm alone (tebuconazole 0 ppm), Table 3) of 72.

From US20180160684A1 (priority 2015, published 2018)
